The source of these data is ChEMBL document CHEMBL3639280, “2-Phenyl-1-[4-(2-Aminoethoxy)-Benzyl]-Indole and estrogen formulations” (2014).

This experiment addresses T1, Estrogen receptor (Homo sapiens, UniProt P03372).
T1 sequence (P03372 whole entry): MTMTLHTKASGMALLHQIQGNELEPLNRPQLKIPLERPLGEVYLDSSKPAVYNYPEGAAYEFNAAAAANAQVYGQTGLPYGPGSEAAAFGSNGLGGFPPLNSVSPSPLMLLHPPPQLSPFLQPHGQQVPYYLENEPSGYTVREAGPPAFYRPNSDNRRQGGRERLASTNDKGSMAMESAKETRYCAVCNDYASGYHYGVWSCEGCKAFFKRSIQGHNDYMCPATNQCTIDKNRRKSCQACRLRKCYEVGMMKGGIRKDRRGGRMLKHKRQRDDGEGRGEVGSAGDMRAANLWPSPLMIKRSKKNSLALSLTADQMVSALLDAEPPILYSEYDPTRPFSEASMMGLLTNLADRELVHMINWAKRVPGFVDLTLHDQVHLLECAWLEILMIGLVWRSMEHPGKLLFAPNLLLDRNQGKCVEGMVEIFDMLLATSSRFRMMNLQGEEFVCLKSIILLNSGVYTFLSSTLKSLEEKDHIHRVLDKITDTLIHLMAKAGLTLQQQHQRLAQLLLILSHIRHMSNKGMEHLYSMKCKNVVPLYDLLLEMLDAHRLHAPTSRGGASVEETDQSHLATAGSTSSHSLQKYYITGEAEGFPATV
Put plainly: Binding Assay: The competition assay was performed in a 96-well plate (polystyrene*) which binds <2.0% of the total input [3H]-17beta-estradiol and each data point was gathered in triplicate. 100 uG/100 uL of the receptor preparation was aliquoted per well. A saturating dose of 2.5 nM [3H]17beta-estradiol+competitor (or buffer) in a 50 uL volume was added in the preliminary competition when 100x ….

As for `Cc1c(-c2ccc(O)cc2)n(Cc2ccc(OCCN3CC4CCC3C4)cc2)c2ccc(O)cc12` (stereo unspecified), the IC50 (in general, the midpoint of a concentration-inhibition curve) turned out to be 1 nM.
